# pEC50: −log10 of the molar value.
# Assay: Cytotoxicity against cat CRFK cells measured after 24 hrs by MTT assay
# Type: cell-based, Felis catus
# Conditions: not given
row,Compound,CC50 at 24 h
1,Clc1c2ssnc-2c2ccccc12,> 100 µM
2,CCOC(=O)c1c2nssc-2c(Cl)c1Cl,> 100 µM
3,CCOC(=O)c1c2n[se]sc-2c(Cl)c1Cl,> 100 µM
4,N#Cc1c2n[se]sc-2c(Cl)c1Cl,> 100 µM
5,Clc1c2s[se]nc-2c2ccccc12,98 µM
6,ClC1=C2SSN=C2c2ccccc2C(Cl)=C1Cl,> 100 µM
7,c1ccc2c(c1)N=C1S[Se]N=C1O2,> 100 µM
8,N#Cc1c2nssc-2c(Cl)c1Cl,> 100 µM
9,ClC1=C2S[Se]N=C2c2ccccc2C(Cl)=C1Cl,> 100 µM
10,c1ccc(-c2c3ssnc-3c3ccccc23)cc1,> 100 µM
11,c1ccc2c(c1)N=C1SSN=C1O2,> 100 µM
12,c1ccc(-c2c3s[se]nc-3c3ccccc23)cc1,56 µM
13,Clc1c2nssc-2c(Cl)c1Cl,68 µM
14,Clc1c2n[se]sc-2c(Cl)c1Cl,62 µM
15,Cc1cn([C@H]2C[C@H](N=[N+]=[N-])[C@@H](CO)O2)c(=O)[nH]c1=O [ZIDOVUDINE],> 100 µM

# Assay: Therapeutic index, ratio of CC50 for cat FL-4 cells to EC50 for inhibition of nucleocapsin protein in FIV infected in cat FL-4 cells
# Type: toxicity, cell-based
# Conditions: FL-4 cells (FIV infected for EC50), read-out: Ratio CC50/EC50
row,Compound,selectivity ratio
1,Clc1c2ssnc-2c2ccccc12,36.3
2,CCOC(=O)c1c2nssc-2c(Cl)c1Cl,11.4
3,CCOC(=O)c1c2n[se]sc-2c(Cl)c1Cl,61.9
4,N#Cc1c2n[se]sc-2c(Cl)c1Cl,4.7
5,Clc1c2s[se]nc-2c2ccccc12,4.6
6,ClC1=C2SSN=C2c2ccccc2C(Cl)=C1Cl,3.1
7,c1ccc2c(c1)N=C1S[Se]N=C1O2,24
8,N#Cc1c2nssc-2c(Cl)c1Cl,26.8
9,ClC1=C2S[Se]N=C2c2ccccc2C(Cl)=C1Cl,3.3
10,c1ccc(-c2c3ssnc-3c3ccccc23)cc1,> 4
11,c1ccc2c(c1)N=C1SSN=C1O2,14
12,c1ccc(-c2c3s[se]nc-3c3ccccc23)cc1,194
13,Clc1c2nssc-2c(Cl)c1Cl,3.8
14,Clc1c2n[se]sc-2c(Cl)c1Cl,5.4
15,Cc1cn([C@H]2C[C@H](N=[N+]=[N-])[C@@H](CO)O2)c(=O)[nH]c1=O [ZIDOVUDINE],> 37

# Assay: Cytotoxicity against cat FL-4 cells measured after 7 days by MTT assay
# Type: cell-based, Felis catus
# Conditions: not given
row,Compound,CC50 at 168 h
1,Clc1c2ssnc-2c2ccccc12,49 µM
2,CCOC(=O)c1c2nssc-2c(Cl)c1Cl,3.5 µM
3,CCOC(=O)c1c2n[se]sc-2c(Cl)c1Cl,5.1 µM
4,N#Cc1c2n[se]sc-2c(Cl)c1Cl,18 µM
5,Clc1c2s[se]nc-2c2ccccc12,5.7 µM
6,ClC1=C2SSN=C2c2ccccc2C(Cl)=C1Cl,9.3 µM
7,c1ccc2c(c1)N=C1S[Se]N=C1O2,5.8 µM
8,N#Cc1c2nssc-2c(Cl)c1Cl,39 µM
9,ClC1=C2S[Se]N=C2c2ccccc2C(Cl)=C1Cl,0.83 µM
10,c1ccc(-c2c3ssnc-3c3ccccc23)cc1,> 100 µM
11,c1ccc2c(c1)N=C1SSN=C1O2,57 µM
12,c1ccc(-c2c3s[se]nc-3c3ccccc23)cc1,50 µM
13,Clc1c2nssc-2c(Cl)c1Cl,6.1 µM
14,Clc1c2n[se]sc-2c(Cl)c1Cl,6.5 µM
15,Cc1cn([C@H]2C[C@H](N=[N+]=[N-])[C@@H](CO)O2)c(=O)[nH]c1=O [ZIDOVUDINE],> 100 µM

# Assay: Inhibition of nucleocapsin protein in FIV infected in cat FL-4 cells assessed as reduction in viral RNA replication measured after 7 days by qRT-PCR analysis
# Type: cell-based
# Conditions: Feline immunodeficiency virus, FL-4, 168 h
row,Compound,pEC50
1,CCOC(=O)c1c2n[se]sc-2c(Cl)c1Cl,7.09
2,N#Cc1c2n[se]sc-2c(Cl)c1Cl,5.42
3,Clc1c2s[se]nc-2c2ccccc12,5.92
4,c1ccc2c(c1)N=C1S[Se]N=C1O2,6.62
5,ClC1=C2S[Se]N=C2c2ccccc2C(Cl)=C1Cl,6.60
6,c1ccc(-c2c3s[se]nc-3c3ccccc23)cc1,6.59
7,Clc1c2n[se]sc-2c(Cl)c1Cl,5.92

# Now from value to compound:
row,pEC50,Compound
1,5.85,Clc1c2ssnc-2c2ccccc12
2,6.51,CCOC(=O)c1c2nssc-2c(Cl)c1Cl
3,5.52,ClC1=C2SSN=C2c2ccccc2C(Cl)=C1Cl
4,5.82,N#Cc1c2nssc-2c(Cl)c1Cl
5,4.59,c1ccc(-c2c3ssnc-3c3ccccc23)cc1
6,5.40,c1ccc2c(c1)N=C1SSN=C1O2
7,5.80,Clc1c2nssc-2c(Cl)c1Cl
8,5.57,Cc1cn([C@H]2C[C@H](N=[N+]=[N-])[C@@H](CO)O2)c(=O)[nH]c1=O [ZIDOVUDINE]

# From ChEMBL document CHEMBL4390707, “Synthesis and comparison of substituted 1,2,3-dithiazole and 1,2,3-thiaselenazole as inhibitors of the feline immunodeficiency virus (FIV) nucleocapsid protein as a model for HIV infection” (Bioorg Med Chem Lett, 2019)
